From patent publication US20110319266A1, “HERBICIDAL COMPOSITION” (priority 2009, published 2011)
Values joined by “and” are separate entries in the source; they are usually repeats but may differ in a detail not shown here. Equal entries are not always repeated. Where two headings read alike, the source gives them in different places.

Assays:
Assay type in all cases: in vivo
Triticum aestivum = tested on: Triticum aestivum
Protocol: (§1) A plastic cup with a diameter of 8 cm and a depth of 6.5 cm was filled with soil. Seeds of wheat (Triticum aestivum) and one or more kinds of test plant selected from Alopecurus myosuroides, Lolium multiflorum, Setaria viridis, Sinapis arvensis and Stellaria media were sowed in the cup, and then grown in a greenhouse until Triticum aestivum was grown in the second to third leaf stage. Then, a test dilution containing predetermined amounts of the present compound, a compound selected from Group A and a compound selected from Group B was sprayed onto the whole plants uniformly. The test dilution was prepared by dissolving a predetermined amount of each compound in a 2% solution of Tween 20 (polyoxyethylene sorbitan fatty acid ester, MP Biomedicals, Inc.) in dimethylformamide and then diluting the solution with water, and then mixing the respective water dilutions thus obtained of the present compound, a compound selected from Group A and a compound selected from Group B. After the spray treatment, the plants were grown in a greenhouse for 21 days.

Sinapis arvensis = assay: Test Example 1: greenhouse spray test, herbicidal effect on Sinapis arvensis
Protocol: as §1, with “days. The herbicidal effect was rated in 101 levels from 0 (no effect) to 100 (complete death).” for “days.”

Setaria viridis = assay: Test Example 1: greenhouse spray test, herbicidal effect on Setaria viridis
Protocol: as §1, with “days. The herbicidal effect was rated in 101 levels from 0 (no effect) to 100 (complete death).” for “days.”

Lolium multiflorum = assay: Test Example 1: greenhouse spray test, herbicidal effect on Lolium multiflorum
Protocol: as §1

Stellaria media = assay: Test Example 1: greenhouse spray test, herbicidal effect on Stellaria media
Protocol: as §1

Alopecurus myosuroides = assay: Test Example 1: greenhouse spray test, herbicidal effect on Alopecurus myosuroides
Protocol: as §1, with “days. The herbicidal effect was rated in 101 levels from 0 (no effect) to 100 (complete death).” for “days.”

[1] = amount of chemical 20 g/ha, 21 days after spray, scale 0 (no effect) to 100 (complete death)
[2] = amount of chemical 200 g/ha, 21 days after spray, scale 0 (no effect) to 100 (complete death)
[3] = Lolium multiflorum, 504 h, read-out: herbicidal effect on Lolium multiflorum
[4] = Lolium multiflorum, 504 h, amount of chemical 6.3 g/ha, 21 days after spray, scale 0 (no effect) to 100 (complete death), read-out: herbicidal effect on Lolium multiflorum
[5] = amount of chemical 6.3 g/ha, 21 days after spray, scale 0 (no effect) to 100 (complete death)
[6] = amount of chemical 5 g/ha, 21 days after spray, scale 0 (no effect) to 100 (complete death)
[7] = amount of chemical 0.1 g/ha, 21 days after spray, scale 0 (no effect) to 100 (complete death)
[8] = amount of chemical 0.2 g/ha, 21 days after spray, scale 0 (no effect) to 100 (complete death)
[9] = amount of chemical 25 g/ha, 21 days after spray, scale 0 (no effect) to 100 (complete death)
[10] = amount of chemical 3.1 g/ha, 21 days after spray, scale 0 (no effect) to 100 (complete death)
[11] = amount of chemical 0.25 g/ha, 21 days after spray, scale 0 (no effect) to 100 (complete death)

With `O=C(O)COc1ccc(Cl)cc1Cl` [2,4-D] the “herbicidal effect on Triticum aestivum” value (Triticum aestivum; amount of chemical 25 g/ha) was 0, the “herbicidal effect on Sinapis arvensis” value (Sinapis arvensis; amount of chemical 25 g/ha) was 80 and the “herbicidal effect on Setaria viridis” value (Setaria viridis; amount of chemical 25 g/ha) was 0.
In the case of `N#Cc1cc(Br)c(O)c(Br)c1` [Bromoxynil, bromoxynil], the “herbicidal effect on Triticum aestivum” value (Triticum aestivum; [1]) was 0, the “herbicidal effect on Triticum aestivum” value (Triticum aestivum; [2]) was 5 and the pest or weed control at 20 g/ha (Lolium multiflorum; [3]) was 0%. The pest or weed control at 200 g/ha (Lolium multiflorum; [3]) was 0%, the “herbicidal effect on Stellaria media” value (Stellaria media; [1]) was 0 and the “herbicidal effect on Stellaria media” value (Stellaria media; [2]) was 10.
`COc1nc(C)nc(NC(=O)NS(=O)(=O)c2ccccc2Cl)n1` [Chlorsulfuron] was tested, and the “herbicidal effect on Alopecurus myosuroides” value (Alopecurus myosuroides; amount of chemical 1 g/ha) was 0.
`O=C(O)c1nc(Cl)ccc1Cl` [Clopyralid] was tested, and the “herbicidal effect on Triticum aestivum” value (Triticum aestivum; amount of chemical 100 g/ha) was 0 and the “herbicidal effect on Alopecurus myosuroides” value (Alopecurus myosuroides; amount of chemical 100 g/ha) was 0.
For `CCCCCC(C)OC(=O)COc1ccc(Cl)c2cccnc12` (stereo not drawn) [Cloquintocet-mexyl, cloquintocet-mexyl], the pest or weed control at 6.3 g/ha (Lolium multiflorum; [4]) was 0%, the “herbicidal effect on Sinapis arvensis” value (Sinapis arvensis; [5]) was 0 and the “herbicidal effect on Alopecurus myosuroides” value (Alopecurus myosuroides; amount of chemical 6.3 g/ha) was 0. The “herbicidal effect on Alopecurus myosuroides” value (Alopecurus myosuroides; [5]) was 0 and the “herbicidal effect on Stellaria media” value (Stellaria media; [5]) was 0.
`COc1c(Cl)ccc(Cl)c1C(=O)O` [Dicamba] gave a pest or weed control at 50 g/ha (Lolium multiflorum; Lolium multiflorum, 504 h, amount of chemical 50 g/ha) of 0%.
`CCOC(=O)c1nc(C(Cl)(Cl)Cl)n(-c2ccc(Cl)cc2Cl)n1` [Fenchlorazole-ethyl, fenchlorazole-ethyl] was tested, and the pest or weed control at 5 g/ha (Lolium multiflorum; Lolium multiflorum, 504 h, amount of chemical 5 g/ha, 21 days after spray, scale 0 (no effect) to 100 (complete death)) was 0%, the pest or weed control at 6.3 g/ha (Lolium multiflorum; [4]) was 0% and the “herbicidal effect on Sinapis arvensis” value (Sinapis arvensis; [6]) was 0. For the same molecule, the “herbicidal effect on Sinapis arvensis” value (Sinapis arvensis; amount of chemical 6.3 g/ha) was 0 and the “herbicidal effect on Setaria viridis” value (Setaria viridis; amount of chemical 6.3 g/ha) was 0.
In the case of `COc1ncc(F)c2nc(S(=O)(=O)Nc3c(F)cccc3F)nn12` [Florasulam, florasulam], the “herbicidal effect on Triticum aestivum” value (Triticum aestivum; amount of chemical 0.1 g/ha) was 0, the “herbicidal effect on Triticum aestivum” value (Triticum aestivum; [7]) was 0 and the “herbicidal effect on Triticum aestivum” value (Triticum aestivum; [8]) was 0. For the same molecule, the “herbicidal effect on Lolium multiflorum” value (Lolium multiflorum; amount of chemical 0.1 g/ha) was 0, the “herbicidal effect on Lolium multiflorum” value (Lolium multiflorum; [7]) was 0 and the “herbicidal effect on Lolium multiflorum” value (Lolium multiflorum; [8]) was 0.
With `Nc1c(Cl)c(F)nc(OCC(=O)O)c1Cl` [Fluroxypyr] the “herbicidal effect on Triticum aestivum” value (Triticum aestivum; [9]) was 0, the “herbicidal effect on Alopecurus myosuroides” value (Alopecurus myosuroides; [9]) was 0 and the “herbicidal effect on Stellaria media” value (Stellaria media; [9]) was 40.
`CCc1cc(C)cc(CC)c1-c1c(O)c(C)nn(C)c1=O` [I-a-14, 4-(2,6-diethyl-4-methylphenyl)-5-hydroxy-2,6-dimethyl-3(2H)-pyridazinone] was tested, and the pest or weed control at 25 g/ha (Lolium multiflorum; Lolium multiflorum, 504 h, amount of chemical 25 g/ha, 21 days after spray, scale 0 (no effect) to 100 (complete death)) was 90%, the “herbicidal effect on Sinapis arvensis” value (Sinapis arvensis; [9]) was 60 and the “herbicidal effect on Alopecurus myosuroides” value (Alopecurus myosuroides; [9]) was 90. The “herbicidal effect on Stellaria media” value (Stellaria media; [9]) was 50.
`CCc1cc(CC)c(-c2c(O)c(C)nn(C)c2=O)c(CC)c1` [I-a-17] was tested, and the “herbicidal effect on Triticum aestivum” value (Triticum aestivum; [6]) was 5, the “herbicidal effect on Lolium multiflorum” value (Lolium multiflorum; [6]) was 10 and the “herbicidal effect on Sinapis arvensis” value (Sinapis arvensis; [6]) was 30.
For `CCc1cc(C)cc(C)c1-c1c(O)c(C)nn(C)c1=O` [I-a-18], the “herbicidal effect on Triticum aestivum” value (Triticum aestivum; [5]) was 5, the “herbicidal effect on Lolium multiflorum” value (Lolium multiflorum; [5]) was 60 and the “herbicidal effect on Stellaria media” value (Stellaria media; [5]) was 5.
`CCc1cc(C)cc(CC)c1-c1c(OC(C)=O)c(C)nn(C)c1=O` [I-b-14] was tested, and the “herbicidal effect on Triticum aestivum” value (Triticum aestivum; [5]) was 5 and the “herbicidal effect on Lolium multiflorum” value (Lolium multiflorum; [5]) was 70.
In the case of `CCOC(=O)Oc1c(C)nn(C)c(=O)c1-c1c(CC)cc(C)cc1CC` [I-b-18], the “herbicidal effect on Triticum aestivum” value (Triticum aestivum; amount of chemical 25 g/ha) was 10, the “herbicidal effect on Triticum aestivum” value (Triticum aestivum; [9]) was 10 and the “herbicidal effect on Lolium multiflorum” value (Lolium multiflorum; amount of chemical 25 g/ha) was 30. The “herbicidal effect on Lolium multiflorum” value (Lolium multiflorum; [9]) was 30 and the “herbicidal effect on Stellaria media” value (Stellaria media; amount of chemical 25 g/ha) was 5.
`CCc1cc(C)cc(CC)c1-c1c(OC(=O)OC)c(C)nn(C)c1=O` [I-b-25] was tested, and the “herbicidal effect on Triticum aestivum” value (Triticum aestivum; amount of chemical 25 g/ha) was 5, the “herbicidal effect on Sinapis arvensis” value (Sinapis arvensis; amount of chemical 25 g/ha) was 20 and the “herbicidal effect on Setaria viridis” value (Setaria viridis; amount of chemical 25 g/ha) was 95.
`CCOC(=O)Oc1c(C)nn(C)c(=O)c1-c1c(C)cc(C)cc1CC` [I-b-35] was tested, and the “herbicidal effect on Triticum aestivum” value (Triticum aestivum; amount of chemical 25 g/ha) was 10 and the “herbicidal effect on Alopecurus myosuroides” value (Alopecurus myosuroides; amount of chemical 25 g/ha) was 50.
In the case of `CCc1cc(CC)c(-c2c(OC(=O)OC)c(C)nn(C)c2=O)c(CC)c1` [I-b-36], the “herbicidal effect on Triticum aestivum” value (Triticum aestivum; amount of chemical 25 g/ha) was 10 and the “herbicidal effect on Alopecurus myosuroides” value (Alopecurus myosuroides; amount of chemical 25 g/ha) was 50.
With `CCOC(=O)C1=NN(c2ccc(Cl)cc2Cl)C(C)(C(=O)OCC)C1` (stereo not drawn) [Mefenpyr-diethyl, mefenpyr-diethyl] the “herbicidal effect on Triticum aestivum” value (Triticum aestivum; [10]) was 0, the “herbicidal effect on Triticum aestivum” value (Triticum aestivum; amount of chemical 6.3 g/ha) was 0 and the “herbicidal effect on Triticum aestivum” value (Triticum aestivum; [5]) was 0. For the same molecule, the pest or weed control at 3.1 g/ha (Lolium multiflorum; [3]) was 0%, the pest or weed control at 6.3 g/ha (Lolium multiflorum; [3]) was 0% and the “herbicidal effect on Lolium multiflorum” value (Lolium multiflorum; amount of chemical 6.3 g/ha) was 0. The “herbicidal effect on Stellaria media” value (Stellaria media; [10]) was 0, the “herbicidal effect on Stellaria media” value (Stellaria media; amount of chemical 6.3 g/ha) was 0 and the “herbicidal effect on Stellaria media” value (Stellaria media; [5]) was 0.
In the case of `COC(=O)c1ccccc1S(=O)(=O)NC(=O)Nc1nc(C)nc(OC)n1` [Metsulfuron-methyl, metsulfuron-methyl], the “herbicidal effect on Triticum aestivum” value (Triticum aestivum; [7]) was 0, the pest or weed control at 0.1 g/ha (Lolium multiflorum; Lolium multiflorum, 504 h, amount of chemical 0.1 g/ha, 21 days after spray, scale 0 (no effect) to 100 (complete death)) was 0% and the “herbicidal effect on Sinapis arvensis” value (Sinapis arvensis; [7]) was 70.
`Cc1nn(C)c(O)c1C(=O)c1ccc(C(F)(F)F)cc1S(C)(=O)=O` [Pyrasulfotole, pyrasulfotole] was tested, and the “herbicidal effect on Triticum aestivum” value (Triticum aestivum; [1]) was 15, the “herbicidal effect on Lolium multiflorum” value (Lolium multiflorum; [1]) was 0 and the “herbicidal effect on Sinapis arvensis” value (Sinapis arvensis; [1]) was 70.
In the case of `COC(=O)c1sccc1S(=O)(=O)NC(=O)Nc1nc(C)nc(OC)n1` [Thifensulfuron-methyl, thifensulfuron-methyl], the “herbicidal effect on Stellaria media” value (Stellaria media; amount of chemical 1 g/ha) was 50.
With `COC(=O)c1ccccc1S(=O)(=O)NC(=O)N(C)c1nc(C)nc(OC)n1` [Tribenuron-methyl, tribenuron-methyl] the “herbicidal effect on Triticum aestivum” value (Triticum aestivum; [11]) was 0, the pest or weed control at 0.25 g/ha (Lolium multiflorum; Lolium multiflorum, 504 h, amount of chemical 0.25 g/ha, 21 days after spray, scale 0 (no effect) to 100 (complete death)) was 0% and the “herbicidal effect on Stellaria media” value (Stellaria media; [11]) was 90 and 80.
